Test [1] has as its system mice. In words: elevated plus-maze. The format is in vivo, N.I.H. Swiss-Webster mice. The text has this:
The theoretical basis for the elevated plus-maze test is similar to that of the light/dark transition test. As described by Pellow et al., J. Neurosci. Meth 14:149-167 (1985), the elevated plus-maze apparatus is designed to utilize the mice's natural aversion to open spaces. The apparatus consists of two open-arms and two enclosed-arms. The elevated plus-maze test allows for two measures of anxiety, the number of entries into the open-arms and the time spent on the open-arms, both expressed as a percentage of the total number of entries and time spent in/on both the open-arms and enclosed-arms.
Male N.I.H. Swiss-Webster mice (Harlan, Indianapolis, IN) weighing 15-20 g were housed four per cage in polyethylene cages with sawdust bedding. The colony room was environmentally controlled (22°C) with a 12 hr light/dark cycle (0600-1800 hr). Food and water were available ad libitum, except during testing. The experiments were run from 0700-1500 hr and groups were counterbalanced for time of day effects. Mice were only administered drug or vehicle once.
The method used was previously described (Lister, Psychopharmacol. 92:180-185 (1987)). The apparatus included two open arms perpendicular to two enclosed arms elevated 50 cm from the floor. Each arm was 50 cm long and the walls of the enclosed arms were 40 cm tall. The maze was made completely of black plexiglass. Incandescent 200 W light bulbs were above each of the open arms to produce a strong contrast between the open arms and the enclosed arms.
Ten minutes after an injection, the N.I.H. Swiss-Webster mice were placed in the center of the plus-maze facing an open arm. During the 5 min test period, the number of entries onto the open arms and the enclosed arms, and the time spent in the open arms and enclosed arms were measured. All four paws had to be within an arm for the dependent variable to be measured. Therefore, the time spent in the center of the maze is not counted, so the total time spent in the open arms and the enclosed arms may not equal 5 min. […]

In test [2] the test system is metrazol induced convulsions. Kind of test: animal or person. It counts as in vivo, mice. The conditions noted are these: IP. As for the experimental part: Experiments were also performed to determine the physiological relevance of neuroactive steroid and GABA receptor interactions by assessing the ability of the compounds of and used in the invention to prevent metrazol induced convulsions in mice. […] The time to onset of myoclonus (presence of forelimb clonic activity) induced by metrazol was determined by observing each mouse for a period of 30 minutes. […]
The anticonvulsant tests are similar to that described above. […] The number of animals with tonic and/or clonic convulsions was recorded. In the maximal electroshock test, 50 mA of current at 60 Hz was delivered through corneal electrodes for 200 msec to induce tonic seizure. The ability of compounds to abolish the tonic component was defined as the endpoint. General CNS depression potential was determined by a rotorod test 10 minutes after the injection of compounds where the number of mice staying on a rotating (6 rpm) rod for 1 minute in one of the three trials was determined. […]

The target in test [3] is GR complex. In words: modulation of [35S]TBPS binding in rat cerebral cortex P2 homogenate. The conditions noted are these: for IC50: concentration of compounds to inhibit 50% of control [35S]TBPS binding, 2 nM [35S]TBPS, 25°C, 90 minutes; for IMAX: maximum inhibition of [35S]TBPS binding, I* = Inactive. Set-up: species or system Sprague-Dawley rats; IMAX: unit not given here. As for the experimental part: We performed several experiments to determine the nature of the modulation of [^35S]TBPS as affected by the compounds of the invention.
These procedures were performed as follows:
Brains from male Sprague-Dawley rats were removed immediately following sacrifice and the cerebral cortices dissected over ice. […] Briefly, the cortices were gently homogenized in 0.32 M sucrose followed by centrifugation at 1000 x g for 10 minutes. The supernatant was collected and centrifuged at 9000 x g for 20 minutes. The resultant P2 pellet was suspended as a 10% (original wet weight/volume) suspension in 50 mM Na/K phosphate buffer (pH 7.4) 200 mM NaCI to form the homogenate.
One hundred microliter […] aliquots of the P2 homogenate (0.5 milligrams (mg) protein) were incubated with 2 nanomolar (nM) [^35S]TBPS (70-110 curies/millimole;, New England Nuclear, Boston, MA) in the presence or absence of the naturally occurring steroids or their synthetic derivatives to be tested. The tested compounds were dissolved in dimethylsulfoxide (Baker Chem. Co., Phillipsbury, NJ) and added to the incubation mixture in 5 µL aliquots. The incubation mixture was brought to a final volume of 1 mL with buffer. Nonspecific binding was defined as binding in the presence of […]. The effect and specificity of GABA (Sigma Chem. Co., St. Louis, MO) was evaluated by performing all assays in the presence of GABA plus (+)bicuculline (Sigma Chem. Co.). Incubations maintained at 25°C for 90 minutes (steady state conditions) were terminated by rapid filtration through glass fiber filters (No. 32, Schleicher and Schuell, Keene, NH). Filter-bound radioactivity was quantitated by liquid scintillation spectrophotometry.
Various compounds were screened to determine their potential as modulators of [^35S]TBPS binding in vitro. These assays were performed in accordance with the above discussed procedures. […] It is an indication of a compound's in vitro potency. Maximum inhibition is an indication of a compound's in vitro efficacy.

Setting [4] is: 50% hpbcd, 10 mg/kg, 10 minutes prior to metrazol (85 mg/kg).

SMILES strings stand for the structures.

As usually defined, the IC50 is the concentration at which inhibition is half-maximal.

Consider `C#C[C@@]1(O)CC[C@@]2(C)[C@H](CC[C@@H]3[C@@H]2CC[C@]2(C)[C@@H](C(C)O)CC[C@@H]32)C1` (stereo partly drawn) [3α,20-Dihydroxy-3β-ethynyl-5β-pregnane], for which the “% Control” value in test [1] (IP, dmso, 10 mg/kg) stood at 178%.

Regarding `CCC(O)C1CCC2C3CCC4CC(C)(O)CCC4(C)C3CCC12C` (stereo not drawn) [3α,20α-Dihydroxy-3β,21-dimethyl-5α-pregnane], in test [1] (IP, dmso, 10 mg/kg), the “% Control” value came to 73%. The “% Protected” value in test [2] (dmso, 10 mg/kg) stood at 0%. The compound also showed an IC50 in test [3] (no unit printed) of 507 nM. In test [3], this compound came in with an IMAX of 48.

Consider `CC(O)C1CCC2C3CCC4CC(C)(O)CCC4(C)C3CCC12C` (stereo not drawn) [3α,20α-dihydroxy-3β-methyl-5α-pregnane], for which the “% Control” value in test [1] (IV, micro soln., 10 mg/kg) is on record as 174.5%. For the same compound, the “% Protected” value in test [2] (micro soln., 100 mg/kg) is 60%. In test [3] (no unit printed), this compound had an IC50 of 166 nM. This compound also came in with an IMAX in test [3] of 52.

For the compound `C#C[C@@]1(O)CC[C@@]2(C)[C@H](CC[C@@H]3[C@@H]2CC[C@]2(C)[C@@H](C(=O)COC(C)=O)CC[C@@H]32)C1` [3α,21-Dihydroxy-3β+ethynyl-5β-pregnan-20-one 21-acetate], the “% Control” value in test [1] (IP, 50% hpbcd, 10 mg/kg) is 159%. Further, the “% Protected” value in test [2] (setting [4]) was found to be 62.5%. In addition, in test [3] (no unit printed), the IC50 turned out to be 251 nM. This compound gave an IMAX in test [3] of 101.

Consider `C[C@]12CC[C@H]3[C@@H](CC[C@@H]4C[C@@](O)(C(F)(F)F)CC[C@@H]43)[C@@H]1CC[C@@H]2C(=O)CO` [3α,21-Dihydroxy-3β-trifluoromethyl-5β-19-norpregnan-20-one], for which, in test [1] (IP, 50% hpbcd, 10 mg/kg), the “% Control” value came to 140%. In addition, in test [2] (setting [4]), the “% Protected” value is 118.8%. Also, the IC50 in test [3] (no unit printed) amounted to 246 nM. Moreover, the IMAX in test [3] amounted to 100.

As for `C[C@]12CC[C@](O)(C(F)(F)F)C[C@H]1CC[C@@H]1[C@@H]2CC[C@]2(C)[C@@H](C(=O)COC(=O)CCC(=O)O)CC[C@@H]12` [3α,21-Dihydroxy-3β-trifluoromethyl-5β-pregnan-20-one, 21-hemisuccinate], in test [2] (water, 10 mg/kg), the “% Protected” value came to 50%. The compound further had an IC50 in test [3] (no unit printed) of 648 nM. Moreover, the IMAX in test [3] is reported as 101.

Turning to `CC(=O)OCC(=O)[C@H]1CC[C@H]2[C@@H]3CC[C@H]4C[C@](C)(O)CC[C@]4(C)[C@H]3CC[C@]12C` [3α,21-Hydroxy-3β-methyl-5α-pregnan-20-one, 21-acetate], in test [2] (micro soln., 10 mg/kg), the “% Protected” value stood at 10%. In test [3] (no unit printed), this compound had an IC50 of 284 nM. The IMAX in test [3] is reported as 93.

On to `C[C@@]1(O)CC[C@@]2(C)[C@@H](CC[C@@H]3[C@@H]2CC[C@]2(C)[C@@H](C(=O)COC(=O)CCC(=O)[O-])CC[C@@H]32)C1.[Na+]` [3α,21-dihydroxy-3β-methyl-5α-pregnan-20-one 21-Hemisuccinate, sodium salt], for which the “% Protected” value in test [2] (micro soln., 10 mg/kg) is 11.11%. Also, the IC50 in test [3] (unit inferred, sodium salt) is 211 nM. This compound showed an IMAX in test [3] of 104.

Consider `C[C@@]1(O)CC[C@@]2(C)[C@@H](CC[C@@H]3[C@@H]2CC[C@]2(C)[C@@H](C(=O)COC(=O)CCC(=O)O)CC[C@@H]32)C1` [3α,21-dihydroxy-3β-methyl-5α-pregnan-20-one 21-hemisuccinate], for which the “% Protected” value in test [2] (water, 10 mg/kg) was 37.5%. The compound also had an IC50 in test [3] (no unit printed) of 241 nM. The compound further yielded an IMAX in test [3] of 92.

Consider `C[C@@]1(O)CC[C@@]2(C)[C@@H](CC[C@@H]3[C@@H]2CC[C@]2(C)[C@@H](C(=O)CO)CC[C@@H]32)C1` [3α,21-dihydroxy-3β-methyl-5α-pregnan-20-one], for which the “% Protected” value in test [2] (setting [4]) was determined as 87.5%. Moreover, the IC50 in test [3] (no unit printed) worked out at 258 nM. In test [3], the IMAX is listed as 96.

In the case of `C[C@]12CC[C@@H](O)C[C@@H]1CC[C@@H]1[C@@H]2CC[C@]2(C)[C@@H](C(=O)COC(=O)CCC(=O)[O-])CC[C@@H]12.[Na+]` [3α,21-dihydroxy-5α-pregnan-20-one 21-hemisuccinate, sodium salt], in test [2] (water, 60 mg/kg), the “% Protected” value came out at 100%. Further, the IC50 in test [3] (unit inferred, sodium salt) amounted to 251 nM. The compound also showed an IMAX in test [3] of 92.

Turning to `CC(=O)OCC(=O)[C@H]1CC[C@H]2[C@@H]3CC[C@@H]4C[C@H](O)CC[C@]4(C)[C@H]3CC[C@]12C` [3α,21-dihydroxy-5β-pregnan-20-one 21-acetate], in test [2] (setting [4]), the “% Protected” value amounted to 25%. In test [3] (no unit printed), this compound gave an IC50 of 119 nM. Moreover, the IMAX in test [3] worked out at 49.

For the compound `CC(=O)[C@H]1CC[C@H]2[C@@H]3CC[C@H]4C[C@](O)(C(F)(F)F)CC[C@]4(C)[C@H]3CC[C@]12C` [3α-Hydroxy-3β-trifluoromethyl-5α-pregnan-20-one], in test [2] (setting [4]), the “% Protected” value worked out at 62.5%. The compound also gave an IC50 in test [3] (no unit printed) of 244 nM. Also, the IMAX in test [3] came out at 44.

With `CC(=O)C1CCC2C3CCC4CC(O)(C(F)(F)F)CCC4(C)C3C(=O)CC12C` (stereo not drawn) [3α-Hydroxy-3β-trifluoromethyl-5β-pregnan-11,20-dione], the “% Control” value in test [1] (IP, 50% hpbcd, 10 mg/kg) was determined as 112%.

Regarding `CC(=O)[C@H]1CC[C@H]2[C@@H]3CC[C@H]4C[C@](C)(O)CC[C@@H]4[C@H]3CC[C@]12C` [3α-hydroxy-3β-methyl-5α-19-nor-pregnan-20-one], the “% Protected” value in test [2] (micro soln., 10 mg/kg) was 37.5%. This compound also showed an IC50 in test [3] (no unit printed) of 91 nM. Moreover, the IMAX in test [3] stood at 80.

Regarding `CC(=O)[C@H]1CC[C@H]2[C@@H]3CC[C@@H]4C[C@@](O)(C#CC5CC5)CC[C@]4(C)[C@H]3CC[C@]12C` [3β-Cyclopropylethynyl-3α-hydroxy-5β-pregnan-20-one], the “% Protected” value in test [2] (setting [4]) amounted to 87.5%. The IC50 in test [3] (no unit printed) worked out at 22 nM; in test [3] (no unit printed, listed as 3β-(cyclopropyl)ethynyl-3α-hydroxy-5β-pregnan-20-one), 32 nM. Moreover, the IMAX in test [3] is on record as 94; in test [3] (listed as 3β-(cyclopropyl)ethynyl-3α-hydroxy-5β-pregnan-20-one) it was 97.

For `C#C[C@@]1(O)CC[C@@]2(C)[C@H](CC[C@H]3[C@@H]4CC[C@H](C(C)=O)[C@@]4(C)C=C[C@@H]32)C1` [3β-Ethynyl-3α-hydroxy-5β-pregn-11-en-20-one], in test [1] (IP, 50% hpbcd, 10 mg/kg), the “% Control” value stood at 233%. The “% Protected” value in test [2] (setting [4]) came out at 75%.

`C#C[C@@]1(O)CC[C@@]2(C)[C@H](CC[C@H]3[C@@H]4CC[C@H](C(C)=O)[C@@]4(C)CC(=O)[C@@H]32)C1` [3β-Ethynyl-3α-hydroxy-5β-pregnan-11,20-dione]: in test [1] (IP, 50% hpbcd, 5 mg/kg), the “% Control” value worked out at 235.9%.

For `C#C[C@@]1(O)CC[C@@]2(C)[C@H](CC[C@@H]3[C@@H]2CC[C@]2(C)[C@@H](C(=O)COC(=O)CCC(=O)OCC(=O)[C@H]4CC[C@H]5[C@@H]6CC[C@@H]7C[C@@](O)(C#C)CC[C@]7(C)[C@H]6CC[C@]45C)CC[C@@H]32)C1` [Bis (3α,21-dihydroxy-3β-ethynyl-5β-pregnan-20-one) 21-hemisuccinate], the “% Protected” value in test [2] (setting [4]) is reported as 37.5%. This compound registered an IC50 in test [3] (no unit printed) of 68 nM. The IMAX in test [3] is given as 56.

The values are drawn from EP0808325B1, “[…] […] SERIES FOR […] GABA RECEPTOR” (priority 1994, dated 1996).
